Measured values: patent US12077503B2, “Substituted cyclic amides and their use as herbicides” (FMC CORPORATION, priority 2015, dated 2024)

What was measured:
Type in all cases: in vivo
[1] = test system: Kochia (Kochia scoparia); test: Test A preemergence; settings: for Plant response rating, Kochia: 125 g ai/ha; for Kochia plant response rating (0 to 100 scale, 0 is no effect, 100 is complete control): 500 g ai/ha, visual injury approx. 10 d
In short: (§1)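 Compounds were formulated in a non-phytotoxic solvent mixture with surfactant and applied as a preemergence directed soil spray after seeding, or sprayed postemergence over plants 2 to 10 cm tall at the one- to two-leaf stage. Evaluation after about 10 d compared treated with untreated controls, using a scale from 0 (no effect) to 100 (complete control).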

[2] = test system: ragweed (common ragweed, Ambrosia elatior); test: Test A preemergence; settings: for Plant response rating, Ragweed: 125 g ai/ha; for Ragweed plant response rating (0 to 100 scale, 0 is no effect, 100 is complete control): 500 g ai/ha, visual injury approx. 10 d
In short: as §1

[3] = test system: ryegrass, Italian (Italian ryegrass, Lolium multiflorum); test: Test A preemergence; settings: for Plant response rating, Ryegrass, Italian: 125 g ai/ha; for Ryegrass, Italian plant response rating (0 to 100 scale, 0 is no effect, 100 is complete control): 500 g ai/ha, visual injury approx. 10 d
In short: as §1

[4] = test system: giant foxtail (Setaria faberii); test: Test A preemergence; settings: for Plant response rating, Foxtail, Giant: 125 g ai/ha; for Foxtail, Giant plant response rating (0 to 100 scale, 0 is no effect, 100 is complete control): 500 g ai/ha, visual injury approx. 10 d
In short: as §1

[5] = test system: barnyardgrass (Echinochloa crus-galli); test: Test A preemergence; settings: for Plant response rating, Barnyardgrass: 125 g ai/ha; for Barnyardgrass plant response rating (0 to 100 scale, 0 is no effect, 100 is complete control): 500 g ai/ha, visual injury approx. 10 d
In short: as §1

[6] = test system: pigweed (Amaranthus retroflexus); test: Test A preemergence; settings: for Plant response rating, Pigweed: 125 g ai/ha; for Pigweed plant response rating (0 to 100 scale, 0 is no effect, 100 is complete control): 500 g ai/ha, visual injury approx. 10 d
[7] = test system: ducksalad (Heteranthera limosa); test: Test B flooded paddy test; settings: Flood, 250 g ai/ha; 0 to 100 scale where 0 is no effect and 100 is complete control; 13 to 15 d
In short: (§2)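 Flooding to 3 cm over soil accompanied treatment, which consisted of adding compound to the standing water around 2-leaf plants; depth was then maintained. Visual assessment versus controls followed at 13 to 15 d (scale 0–100, 0 meaning no effect).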

[8] = test system: sedge, umbrella (small-flower umbrella sedge, Cyperus difformis); test: Test B flooded paddy test; settings: Flood, 250 g ai/ha; 0 to 100 scale where 0 is no effect and 100 is complete control; 13 to 15 d
In short: as §2

[9] = test system: barnyardgrass (Echinochloa crus-galli); test: Test B flooded paddy test; settings: Flood, 250 g ai/ha; 0 to 100 scale where 0 is no effect and 100 is complete control; 13 to 15 d
In short: as §2

[10] = test system: rice (Oryra sativa); test: Test B flooded paddy test; settings: Flood, 250 g ai/ha; 0 to 100 scale where 0 is no effect and 100 is complete control; 13 to 15 d
In short: as §2

[11] = test system: Kochia (Kochia scoparia); test: Test A postemergence; settings: for Kochia plant response rating: 125 g ai/ha, visual injury rating on 0 to 100 scale (0 no effect, 100 complete control), approx. 10 d; for Plant response rating, Kochia: 500 g ai/ha
In short: as §1

[12] = test system: ragweed (common ragweed, Ambrosia elatior); test: Test A postemergence; settings: for Ragweed plant response rating: 125 g ai/ha, visual injury rating on 0 to 100 scale (0 no effect, 100 complete control), approx. 10 d; for Plant response rating, Ragweed: 500 g ai/ha
In short: as §1

[13] = test system: wheat (Triticum aestivum); test: Test A postemergence; settings: for Wheat plant response rating: 125 g ai/ha, visual injury rating on 0 to 100 scale (0 no effect, 100 complete control), approx. 10 d; for Plant response rating, Wheat: 500 g ai/ha
In short: as §1

[14] = test system: Galium (catchweed bedstraw, Galium aparine); test: Test A postemergence; settings: for Galium plant response rating: 125 g ai/ha, visual injury rating on 0 to 100 scale (0 no effect, 100 complete control), approx. 10 d; for Plant response rating, Galium: 500 g ai/ha
In short: as §1

[15] = test system: ryegrass, Italian (Italian ryegrass, Lolium multiflorum); test: Test A postemergence; settings: for Ryegrass, Italian plant response rating: 125 g ai/ha, visual injury rating on 0 to 100 scale (0 no effect, 100 complete control), approx. 10 d; for Plant response rating, Ryegrass, Italian: 500 g ai/ha
In short: as §1

[16] = test system: giant foxtail (Setaria faberii); test: Test A postemergence; settings: for Foxtail, Giant plant response rating: 125 g ai/ha, visual injury rating on 0 to 100 scale (0 no effect, 100 complete control), approx. 10 d; for Plant response rating, Foxtail, Giant: 500 g ai/ha
In short: as §1

[17] = test system: corn (Zea mays); test: Test A postemergence; settings: for Corn plant response rating: 125 g ai/ha, visual injury rating on 0 to 100 scale (0 no effect, 100 complete control), approx. 10 d; for Plant response rating, Corn: 500 g ai/ha
In short: as §1

[18] = test system: barnyardgrass (Echinochloa crus-galli); test: Test A postemergence; settings: for Barnyardgrass plant response rating: 125 g ai/ha, visual injury rating on 0 to 100 scale (0 no effect, 100 complete control), approx. 10 d; for Plant response rating, Barnyardgrass: 500 g ai/ha
In short: as §1

[19] = test system: blackgrass (Alopecurus myosuroides); test: Test A postemergence; settings: for Blackgrass plant response rating: 125 g ai/ha, visual injury rating on 0 to 100 scale (0 no effect, 100 complete control), approx. 10 d; for Plant response rating, Blackgrass: 500 g ai/ha
In short: as §1

[20] = test system: pigweed (Amaranthus retroflexus); test: Test A postemergence; settings: for Pigweed plant response rating: 125 g ai/ha, visual injury rating on 0 to 100 scale (0 no effect, 100 complete control), approx. 10 d; for Plant response rating, Pigweed: 500 g ai/ha
In short: as §1

[21] = preemergence, 0 to 100 scale (0 no effect, 100 complete control)
[22] = postemergence, 0 to 100 scale, 0 no effect, 100 complete control
[23] = Preemergence, visual injury after approximately 10 d, 0 to 100 scale where 0 is no effect and 100 is complete control
[24] = Postemergence, 0 to 100 scale where 0 is no effect and 100 is complete control

What does the source list for O=C1NCC(c2ccc(Br)cc2)C1C(=O)Nc1ccc(F)cc1F (stereo not drawn) [Compound 447]?
Plant response rating, Kochia [1, 21]: 50; Kochia plant response rating (0 to 100 scale, 0 is no effect, 100 is complete control) ([1]; Preemergence): 50; Plant response rating, Ragweed [2, 21]: 0; Ragweed plant response rating (0 to 100 scale, 0 is no effect, 100 is complete control) ([2]; Preemergence): 0; Plant response rating, Ryegrass, Italian [3, 21]: 20; Ryegrass, Italian plant response rating (0 to 100 scale, 0 is no effect, 100 is complete control) ([3]; Preemergence): 30; Plant response rating, Foxtail, Giant [4, 21]: 90; Foxtail, Giant plant response rating (0 to 100 scale, 0 is no effect, 100 is complete control) ([4]; Preemergence): 90; Plant response rating, Barnyardgrass [5, 21]: 70; Barnyardgrass plant response rating (0 to 100 scale, 0 is no effect, 100 is complete control) ([5]; Preemergence): 90; Plant response rating, Pigweed [6, 21]: 30; Pigweed plant response rating (0 to 100 scale, 0 is no effect, 100 is complete control) ([6]; Preemergence): 30; Plant response rating, Ducksalad [7]: 98; Plant response rating, Sedge, Umbrella [8]: 0; Plant response rating, Barnyardgrass [9]: 40; Plant response rating, Rice [10]: 0; Kochia plant response rating ([11]; postemergence): 0; Plant response rating, Kochia [11, 22]: 40; Ragweed plant response rating ([12]; postemergence): 0; Plant response rating, Ragweed [12, 22]: 0; Wheat plant response rating ([13]; postemergence): 0; Plant response rating, Wheat [13, 22]: 0; Galium plant response rating ([14]; postemergence): 40; Plant response rating, Galium [14, 22]: 50; Ryegrass, Italian plant response rating ([15]; postemergence): 0; Plant response rating, Ryegrass, Italian [15, 22]: 20; Foxtail, Giant plant response rating ([16]; postemergence): 80; Plant response rating, Foxtail, Giant [16, 22]: 80; Corn plant response rating ([17]; postemergence): 0; Plant response rating, Corn [17, 22]: 0; Barnyardgrass plant response rating ([18]; postemergence): 80; Plant response rating, Barnyardgrass [18, 22]: 80; Blackgrass plant response rating ([19]; postemergence): 0; Plant response rating, Blackgrass [19, 22]: 30; Pigweed plant response rating ([20]; postemergence): 0; Plant response rating, Pigweed [20, 22]: 30

O=C1NCC(c2ccnc(C(F)(F)F)c2)C1C(=O)Nc1cccc(F)c1F (racemic) [Compound 514] was tested. Which “Plant response rating, Kochia” value [1, 23] did it give?
The value was 0.

What about the “Kochia plant response rating (0 to 100 scale, 0 is no effect, 100 is complete control)” value ([1]; Preemergence) of the same compound?
Its value is 50.

What about the “Plant response rating, Ragweed” value [2, 23] of the same compound?
The value was 0.

What about the “Ragweed plant response rating (0 to 100 scale, 0 is no effect, 100 is complete control)” value ([2]; Preemergence) of the same compound?
Its value is 30.

And the “Plant response rating, Ryegrass, Italian” value [3, 23]?
Its value is 20.

What about the “Ryegrass, Italian plant response rating (0 to 100 scale, 0 is no effect, 100 is complete control)” value ([3]; Preemergence) of the same compound?
Its value is 60.

And the “Plant response rating, Foxtail, Giant” value [4, 23]?
The value was 90.

And the “Foxtail, Giant plant response rating (0 to 100 scale, 0 is no effect, 100 is complete control)” value ([4]; Preemergence)?
Its value is 90.

What about the “Plant response rating, Barnyardgrass” value [5, 23] of the same compound?
The value was 90.

What about the “Barnyardgrass plant response rating (0 to 100 scale, 0 is no effect, 100 is complete control)” value ([5]; Preemergence) of the same compound?
Its value is 90.

And the “Plant response rating, Pigweed” value [6, 23]?
Its value is 0.

What about the “Pigweed plant response rating (0 to 100 scale, 0 is no effect, 100 is complete control)” value ([6]; Preemergence) of the same compound?
Its value is 40.

What about the “Plant response rating, Ducksalad” value [7] of the same compound?
Its value is 100.

What about the “Plant response rating, Sedge, Umbrella” value [8] of the same compound?
Its value is 0.

And the “Plant response rating, Barnyardgrass” value [9]?
The value was 50.

And the “Plant response rating, Rice” value [10]?
The value was 20.

And the “Kochia plant response rating” value ([11]; postemergence)?
The value was 30.

And the “Plant response rating, Kochia” value [11, 24]?
Its value is 50.

And the “Ragweed plant response rating” value ([12]; postemergence)?
The value was 0.

And the “Plant response rating, Ragweed” value [12, 24]?
The value was 20.

What about the “Wheat plant response rating” value ([13]; postemergence) of the same compound?
The value was 30.

What about the “Plant response rating, Wheat” value [13, 24] of the same compound?
The value was 40.

What about the “Galium plant response rating” value ([14]; postemergence) of the same compound?
The value was 40.

And the “Plant response rating, Galium” value [14, 24]?
The value was 50.

What about the “Ryegrass, Italian plant response rating” value ([15]; postemergence) of the same compound?
The value was 20.

What about the “Plant response rating, Ryegrass, Italian” value [15, 24] of the same compound?
Its value is 40.

And the “Foxtail, Giant plant response rating” value ([16]; postemergence)?
Its value is 70.

And the “Plant response rating, Foxtail, Giant” value [16, 24]?
Its value is 90.

And the “Corn plant response rating” value ([17]; postemergence)?
Its value is 30.

And the “Plant response rating, Corn” value [17, 24]?
Its value is 80.

And the “Barnyardgrass plant response rating” value ([18]; postemergence)?
The value was 80.

What about the “Plant response rating, Barnyardgrass” value [18, 24] of the same compound?
Its value is 90.

What about the “Blackgrass plant response rating” value ([19]; postemergence) of the same compound?
Its value is 20.

And the “Plant response rating, Blackgrass” value [19, 24]?
Its value is 50.

And the “Pigweed plant response rating” value ([20]; postemergence)?
The value was 0.

What about the “Plant response rating, Pigweed” value [20, 24] of the same compound?
Its value is 30.
